Measured values published in article PMC5062114, “Dual-targeting anti-angiogenic cyclic peptides as potential drug leads for cancer therapy” (Scientific Reports, 2016).
Read-outs that look alike come from different tables or passages of the source. Bridge positions count the residues as written; N and C are the ends. Square brackets hold non-standard residues; d marks the D form. Peptide text beside a SMILES is read from it.

What was measured:
[1] = test system: HUVEC migration; experiment: VEGF-mediated HUVEC transwell migration assay; assay type: cell-based, human
Procedure: Figure 5 Cell migration on VEGF-mediated HUVECs. The percentage of HUVEC migration was analyzed using Prism Version 6 (GraphPad). (A–T) VEGF was used as a positive control with 100% HUVEC migration. All peptides were tested at concentrations ranging from 0.001–50 μM except for cilengitide and octreotide, which were tested in 10-fold dilutions from 10 μM. Peptides were added in the presence of 0.3 nM VEGF (bottom chamber). Data are shown as mean ± SD (n ≥ 3). Data were normalized to the mean VEGF control. P-values are represented as follows: ****p ≤ 0.0001, ***p ≤ 0.001, **p ≤ 0.01, and *p ≤ 0.05.
A cell migration assay was performed as described by Chan et al.[45] HUVECs between passages three and ten were used. Briefly, initial peptide concentrations of 10–500 μM were prepared for all peptides except SFTI-SST-01, MCo-SST-01, SFTI-SST-02, MCo-SST-02, SFTI-PEDF, MCo-PEDF (0.01–500 μM), cilengitide, octreotide, and MCoAA-02 (1 × 10^−7 M–100 μM). To the apical well, 100 μL of 1 × 10^5 cells/well were seeded and 600 μL of medium supplemented with or without 0.3 nM VEGF (Sigma, catalogue no. V7259) was added to the basolateral well. The well containing cells with 0.1% FBS/EGM-2 basal medium was used as a negative control, and the well containing cells with 0.3 nM VEGF was used as a positive control. All peptides were stimulated with 0.3 nM VEGF. Experiments were done in triplicate. […]

[2] = test system: HUVEC; experiment: cells; conditions: HUVEC, read-out: IC50 ± S.D., 48 hours, HUVEC
Procedure: (§1) HUVECs (human umbilical vein endothelial cells) were cultured in EGM™-2 BulletKit™ supplemented with SingleQuots™ (supplements: growth factors, cytokines, antibiotics; Lonza) and 10% FBS (catalog no. FFBS-500; Scientifix). Both HT-29 and MCF-7 cells were cultured in 10% FBS/DMEM (Dulbecco’s Modified Eagle Medium) with 1% penicillin–streptomycin (5000 U/mL; Life Technologies), whereas PC3 cells (prostate cancer cells) were cultured in 10% FBS/RPMI (Roswell Park Memorial Institute) 1640 with 1% penicillin–streptomycin (5000 U/mL; Life Technologies). All cells were maintained at 37 °C in 5% CO2.
(§2) Cell cytotoxicity and proliferation assays were performed using similar methods to those described by Chan et al.[45]. All cells were maintained using the media conditions described above, and passages two to ten were used for all cell lines. For all cell lines, 5.0 × 10^3 cells/well (100 μL) and 1.5 × 10^3 cells/well (100 μL) were used for cell cytotoxicity and cell proliferation assays, respectively. All peptides (10 μL, at final concentrations ranging from 0.05–100 μM) and drugs, which included cilengitide, octreotide and sunitinib (at final concentrations ranging from 0.00001–100 μM), were used in both assays. Triton X-100 (0.1% (v/v); 10 μL) was used as a positive control. Cells were treated with fresh media the day after plating, before the addition of peptides, followed by a subsequent 2-h and 48-h incubation for cell cytotoxicity and cell proliferation, respectively. After different incubation periods, 3-(4, 5-dimethylthiazolyl-2)-2,5-diphenyltetrazolium bromide (MTT) (10 μL; 5 mg/mL in PBS) was added, and cells were incubated for a further 4 h. The supernatant was then removed and 100 μL DMSO added to solubilize formazan salts. Experiments were performed in triplicate. Cell numbers were recorded at 600 nm. All data represent average mean ± SD.

[3] = test system: PC3; experiment: cells; conditions: read-out: IC50 ± S.D., 48 hours, PC3
Procedure: as §1, §2

[4] = test system: HT-29; experiment: cells; conditions: read-out: IC50 ± S.D., 48 hours, HT-29
Procedure: as §1, §2

[5] = test system: MCF-7; experiment: cells; conditions: read-out: IC50 ± S.D., 48 hours, MCF-7
Procedure: as §1, §2

[6] = Peptide stability assay in human serum
Procedure: Figure 6 Chorionallantoic membrane and stability assays. (A) Comparison of blood vessel count of the linear and grafted peptides. Error bars indicate ± SD (n ≥ 6). […] A one-way ANOVA with Dunnett’s post-test using a multiple comparison test was used for statistical analysis. […] All peptides were compared to 0.3 nM VEGF (highlighted in grey), which is represented as 100% blood vessel growth. […] VEGF was used as the positive control, and octreotide and cilengitide as the negative controls. All images were taken with an original magnification of x16 on an Olympus SZX12 dissecting microscope with a light box. DP capture and DP manager software packages were used during image acquisition. (C) This graph illustrates the percentage of peptide remaining over 24 h in the serum stability assay. […] All data are represented as mean ± SD and were recorded in triplicate. Peptides labeled with an asterisk (*) were tested using the same method except with an additional step – dissolving the centrifuged pellet with 8 M guanidinium chloride before RP-HPLC analysis.
The overall procedures used to assess peptide stability are based on those described previously by Chan et al.[18] and Ji et al.[19]. A peptide concentration of 300 μM was used, and time points taken at 0, 2, 4, 8, 16, and 24 h. The stability of sunitinib was also examined using this method, except an additional step was added after the final centrifugation step, whereby the pellet was dissolved in 8 M guanidine hydrochloride (300 μL) prior to analysis with RP-HPLC; this additional step was adapted from Ji et al.[19]. Supernantants were analyzed on an Agilent RP-HPLC using a linear 1%/min gradient of 0–50% solvent B with a 0.3 mL/min Phenomenex column. Peak height was used for integration of data at 215 nm and each experiment was performed in triplicate.

[7] = cell proliferation inhibition, MTT, 48-h incubation, 1.5 × 10^3 cells/well, triplicate, mean ± SD

SMILES | inhibition at 10 µM ([1]; Homo sapiens, HUVEC, 10 μM, 0.3 nM VEGF) [%] | IC50 ([2]; Homo sapiens, 48 h) [µM] | IC50 ([3]; Homo sapiens, PC-3, 48 h) [µM] | IC50 ([4]; Homo sapiens, HT-29, 48 h) [µM] | IC50 ([5]; Homo sapiens, MCF7, 48 h) [µM] | stability in human serum over 24 h ([6]; human serum, 300 μM, 24 h, RP-HPLC peak height at 215 nm, triplicate) | percentage remaining in human serum at 24 h, excess over sunitinib ([6]; human serum, 300 μM, 24 h, pellet dissolved in 8 M guanidine hydrochloride, RP-HPLC 215 nm, triplicate) | remaining at 24 h, 300 μM ([6]; human, serum) [%] | IC50 [2, 7] [µM] | IC50 [3, 7] [µM] | IC50 [4, 7] [µM] | IC50 [5, 7] [µM] | IC50 ([1]; transwell, 0.3 nM VEGF in bottom chamber, normalized to VEGF control = 100% migration, n ≥ 3, read-out: concentration giving 50% inhibition of HUVEC migration) [nM]
CCN(CC)CCNC(=O)c1c(C)[nH]c(/C=C2\C(=O)Nc3ccc(F)cc32)c1C [sunitinib, Sunitinib malate, reference compound] | 100 | 19.1 ± 0.46 | 16.2 ± 0.26 | 1.43 ± 0.24 | 17.07 ± 0.11 | – | – | – | – | – | – | – | –
CC[C@H](C)[C@@H]1NC(=O)[C@@H]2CSSC[C@@H]3NC(=O)CNC(=O)[C@H](Cc4ccccc4)NC(=O)[C@@H]4CCCN4C(=O)[C@H](CCC(N)=O)NC(=O)[C@H](CC(N)=O)NC(=O)[C@H](CC(C)C)NC(=O)[C@H](Cc4c[nH]cn4)NC(=O)[C@H](Cc4ccc(O)cc4)NC(=O)CNC(=O)[C@@H]4CSSC[C@H](NC(=O)[C@H](CC(=O)O)NC(=O)[C@H](CO)NC(=O)[C@H](CC(=O)O)NC(=O)[C@H](CCCNC(=N)N)NC(=O)[C@H](CCCNC(=N)N)NC(=O)[C@H](CSSC[C@H](NC1=O)C(=O)N[C@@H](CCCNC(=N)N)C(=O)N[C@@H](Cc1ccc(O)cc1)C(=O)N[C@H](Cc1c[nH]c5ccccc15)C(=O)N[C@@H](CCCCN)C(=O)N[C@@H](C(C)C)C(=O)N4)NC(=O)[C@H](CCCCN)NC(=O)[C@H](CCCCN)NC(=O)[C@H](CC(C)C)NC(=O)[C@H]([C@@H](C)CC)NC(=O)[C@H](CCCCN)NC(=O)[C@@H]1CCCN1C3=O)C(=O)N1CCC[C@H]1C(=O)NCC(=O)N[C@@H](C)C(=O)N2 [MCoAA-02] (cyclo(ACICRY[dW]KVCGYHLNQPFGCPKILKKCRRDSDCPG); disulfide 2-20, 4-27, 10-33) | – | – | – | – | – | stable | approximately 20% | > 75 | 27.06 ± 0.06 | 35.44 ± 0.13 | 19.75 ± 0.07 | > 100 | –
CC[C@H](C)[C@@H]1NC(=O)[C@@H]2CSSC[C@@H]3NC(=O)[C@H](C(C)C)NC(=O)CNC(=O)CNC(=O)[C@H](CC(=O)O)NC(=O)[C@H](CO)NC(=O)CNC(=O)[C@H](CO)NC(=O)CNC(=O)[C@@H]4CSSC[C@H](NC(=O)[C@H](CC(=O)O)NC(=O)[C@H](CO)NC(=O)[C@H](CC(=O)O)NC(=O)[C@H](CCCNC(=N)N)NC(=O)[C@H](CCCNC(=N)N)NC(=O)[C@H](CSSC[C@H](NC1=O)C(=O)N[C@@H](CCCNC(=N)N)C(=O)N[C@@H](Cc1ccc(O)cc1)C(=O)N[C@H](Cc1c[nH]c5ccccc15)C(=O)N[C@@H](CCCCN)C(=O)N[C@@H](C(C)C)C(=O)N4)NC(=O)[C@H](CCCCN)NC(=O)[C@H](CCCCN)NC(=O)[C@H](CC(C)C)NC(=O)[C@H]([C@@H](C)CC)NC(=O)[C@H](CCCCN)NC(=O)[C@@H]1CCCN1C3=O)C(=O)N1CCC[C@H]1C(=O)NCC(=O)N[C@@H](C)C(=O)N2 [MCo-SST-01] (cyclo(ACICRY[dW]KVCGSGSDGGVCPKILKKCRRDSDCPG); disulfide 2-19, 4-26, 10-32 (inferred); ring closure inferred) | – | – | – | – | – | – | – | – | 17.12 ± 0.05 | 85.44 ± 0.08 | 74.13 ± 0.07 | > 100 | 5
